Data reported in patent publication US20250275976A1, “Methods of Treating Neuroinflammatory Conditions” (Athira Pharma, Inc., priority 2022, published 2025).
Read-outs that look alike come from different tables or passages of the source. Square brackets hold non-standard residues; d marks the D form. Peptide text beside a SMILES is read from it. * marks the point of attachment. Hexanoyl = CCCCCC(=O)*; Ahx = NCCCCCC(=O)O

Legend:
Prp-TDP43^A315T mice = type: in vivo
Protocol: Extranuclear accumulation of TDP-43 protein is a pathological hallmark of a number of neurological diseases. […] Male Prp-TDP43^A315T mice (N=10 mice per group) at 3 weeks of age were administered daily treatments of test compounds. Compound A19 was administered via subcutaneous injection, and Compound 5a and Compound 6a were administered via oral gavage. After 2 months of treatment, plasma samples were collected for cytokine quantification. […] Plasma IL-6 and TNF-α cytokine expression levels were determined using the ELISA method. The submandibular vein was punctured with a lancet and a blood drop was collected directly on a microtube containing EDTA as anticoagulant. Samples were centrifuged for 15 minutes at 1000×g at 4° C. within 20 minutes of collection. 20 μl of plasma supernatant was stored at −20° C. before ELISA analysis.
Plasma was diluted at 1:10 in sterile PBS, and IL-6 and TNF-α quantification was performed in duplicate for each animal using 10 μl of sample per well in 96-well plates using the ELISA method (IL-6: Signa-Aldrich Cat #RAB0308, TNF-α: Sigma-Aldrich Cat #RAB0477). Statistical analysis was carried out by 2-way ANOVA with Dunnett's multiple comparisons post-test with compound-treated samples compared to vehicle-treated samples.

BV2 microglia [1] = experiment: pAKT in LPS-stimulated BV2 microglia (HTRF); type: cell-based; conditions: for Inflammatory Readout: pAKT (significance of reduction): LPS pre-treatment 45 minutes, compound 1 hour
Description: Microglia are the resident immune cells of the brain and, when activated by pathological conditions, promote broad-spectrum neuroinflammation. When activated by toxic exogenous substances, microglia produce excessive reactive oxygen species (ROS), nitric oxide (NO), and proinflammatory cytokines, which further propagates disease pathogenesis. BV2 microglia were used as an in-vitro cell model to evaluate mechanisms relevant to inflammation in the CNS. Upon activation of TLR4 with LPS, microglia are activated and trigger excessive oxidative stress, a process that is partially mediated by AKT phosphorylation (pAKT) and activation. Microglia activation also leads to a range of changes in gene expression.
Compound A19 active metabolite (Compound A19-AM) was investigated for whether it could reduce the inflammatory effect of LPS in microglia. Inflammatory activation of BV2 microglia cells was stimulated by pre-treatment with LPS for 45 minutes, followed by the addition of test compound for 1 hour (pAKT) or 23.5 hours (NO and gene expression panel). For pAKT measurement, cells were lysed and the pAKT measurement was conducted using the HTRF system. For NO production, culture supernatants were collected and assessed for the presence of nitrite, a primary metabolic product of nitric oxide.
Quantification of nitrite production in cell culture supernatants was accomplished using the Griess Reagent System (Promega, G2930). Measurement of pAKT was assessed utilizing Phospho-AKT 1/2/3 (Ser473) […] Cellular Detection Kit (CisBio, 64AKSPEH).
Data analysis was performed via One-way ANOVA with Dunnett's multiple comparisons test compared to LPS-stimulated, vehicle treated cultures using Prism statistical software (GraphPad). Tabular data indicates significance of reduction in the indicated analyte at the indicated dose.

BV2 microglia [2] = experiment: Quantigene gene expression panel in LPS-stimulated BV2 microglia; type: cell-based; set-up: key to Significant reduction in target transcript abundance compared to LPS-stimulated BV2 lysates: NLRP3 / Significant reduction in target transcript abundance compared to LPS-stimulated BV2 lysates: IL-1β / Significant reduction in target transcript abundance compared to LPS-stimulated BV2 lysates: IL-6 / Significant reduction in target transcript abundance compared to LPS-stimulated BV2 lysates: iNOS: “NS” indicates a non-significant reduction indicated gene expression compared to LPS-treated cultures; “+” indicates a p value < 0.05; “++” indicates a p value < 0.01; “+++” indicates a p value < 0.001; “+++” indicates a p value < 0.0005 in Dunnett's multiple comparison
Protocol: Changes in gene expression in BV2 cells in response to stimulation with LPS and whether or not these gene expression changes are influenced by treatment with Compound A19-AM was also examined. Inflammatory activation of BV2 microglia was stimulated by pre-treatment with LPS for 45 minutes followed by the addition of test compound for 23.5 hours. Cell cultures were then lysed and processed for expression profiling via bead-based transcript quantification using the Quantigene multiplex gene expression assay (ThermoFisher) and a custom array of target transcripts relevant to inflammatory activation. Expression of a major component of the inflammasome (NLRP3), cytokines (TNF-α, IL-1β, and IL-6), and inducible nitric oxide synthase (iNOS) were assessed. Expression data were quantified as fold change compared to unstimulated cell cultures. Statistical analysis consisted of one-way ANOVA with Dunnett's multiple comparisons post-test compared to LPS-stimulated lysates. Gene expression data is represented in Table 14. Expression of all inflammatory transcript targets were induced by treatment with LPS.

[3] = 2 months of treatment, doses as in the value

Structure (SMILES): CCC(C)CN1CC2N(Cc3ccc(C(F)(F)F)cc3)CCC(=O)N2[C@@H](C)C1=O (stereo partly drawn) [Compound 5a]
- Significant decrease in plasma cytokine expression after 2 months of treatment: IL-6 (Prp-TDP43^A315T mice; 2 mg/kg PO daily): ++++ (++++ = p < 0.0001)
- Significant decrease in plasma cytokine expression after 2 months of treatment: TNF-α (Prp-TDP43^A315T mice; 2 mg/kg PO daily): ++++ (++++ = p < 0.0001)
- Significant decrease in plasma cytokine expression after 2 months of treatment: IL-6 (Prp-TDP43^A315T mice; 10 mg/kg PO daily): ++++ (++++ = p < 0.0001)
- Significant decrease in plasma cytokine expression after 2 months of treatment: TNF-α (Prp-TDP43^A315T mice; 10 mg/kg PO daily): ++++ (++++ = p < 0.0001)
- Significant decrease in plasma cytokine expression after 2 months of treatment: IL-6 (Prp-TDP43^A315T mice; 20 mg/kg PO daily): ++++ (++++ = p < 0.0001)
- Significant decrease in plasma cytokine expression after 2 months of treatment: TNF-α (Prp-TDP43^A315T mice; 20 mg/kg PO daily): ++++ (++++ = p < 0.0001)
- Plasma IL-6 expression (result in words) (Prp-TDP43^A315T mice; [3]): significantly reduced both cytokine levels at doses of 2, 10, and 20 mg/kg
- Plasma TNF-α expression (result in words) (Prp-TDP43^A315T mice; [3]): significantly reduced both cytokine levels at doses of 2, 10, and 20 mg/kg

Structure (SMILES): CCCCCC(=O)N[C@@H](Cc1ccc(O)cc1)C(=O)N[C@H](C(=O)NCCCCCC(N)=O)[C@@H](C)CC [Compound A19 active metabolite, dihexa] (Hexanoyl-Tyr-Ile-[Ahx]-NH2)
- AKT phosphorylation (result in words) (BV2 microglia [1]; LPS-stimulated BV2): significantly reduced
- Inflammatory Readout: pAKT (significance of reduction) (BV2 microglia [1]; dose 0.001 nM): ++ (“++” indicates a p value < 0.005 in Dunnett's multiple comparison)
- Inflammatory Readout: pAKT (significance of reduction) (BV2 microglia [1]; dose 1 nM): ++ (“++” indicates a p value < 0.005 in Dunnett's multiple comparison)
- Expression of IL-1β (result in words) (BV2 microglia [2]; concentrations as in the value): reduced at treatment concentrations of 100 nM and 1 μM
- Expression of IL-6 (result in words) (BV2 microglia [2]; concentrations as in the value): reduced at by treatment with 1 μM
- Expression of NLRP3 (result in words) (BV2 microglia [2]; concentrations as in the value): significantly reduced by treatment with 100 nM and 1 μM
- Expression of TNF-α (result in words) (BV2 microglia [2]; concentrations as in the value): reduced by treatment with A19-AM at all tested concentrations
- Expression of iNOS (result in words) (BV2 microglia [2]; concentrations as in the value): significantly reduced by treatment with A19-AM at concentrations of 100 nM and 1 μM
- Significant reduction in target transcript abundance compared to LPS-stimulated BV2 lysates: IL-1β (BV2 microglia [2]; dose 1 pM): NS
- Significant reduction in target transcript abundance compared to LPS-stimulated BV2 lysates: IL-6 (BV2 microglia [2]; dose 1 pM): NS
- Significant reduction in target transcript abundance compared to LPS-stimulated BV2 lysates: NLRP3 (BV2 microglia [2]; dose 1 pM): NS
- Significant reduction in target transcript abundance compared to LPS-stimulated BV2 lysates: iNOS (BV2 microglia [2]; dose 1 pM): NS
- Significant reduction in target transcript abundance compared to LPS-stimulated BV2 lysates: IL-1β (BV2 microglia [2]; dose 10 pM): NS
- Significant reduction in target transcript abundance compared to LPS-stimulated BV2 lysates: IL-6 (BV2 microglia [2]; dose 10 pM): NS
- Significant reduction in target transcript abundance compared to LPS-stimulated BV2 lysates: NLRP3 (BV2 microglia [2]; dose 10 pM): NS
- Significant reduction in target transcript abundance compared to LPS-stimulated BV2 lysates: iNOS (BV2 microglia [2]; dose 10 pM): NS
- Significant reduction in target transcript abundance compared to LPS-stimulated BV2 lysates: IL-1β (BV2 microglia [2]; dose 100 pM): NS
- Significant reduction in target transcript abundance compared to LPS-stimulated BV2 lysates: IL-6 (BV2 microglia [2]; dose 100 pM): NS
- Significant reduction in target transcript abundance compared to LPS-stimulated BV2 lysates: NLRP3 (BV2 microglia [2]; dose 100 pM): NS
- Significant reduction in target transcript abundance compared to LPS-stimulated BV2 lysates: iNOS (BV2 microglia [2]; dose 100 pM): NS
- Significant reduction in target transcript abundance compared to LPS-stimulated BV2 lysates: IL-1β (BV2 microglia [2]; dose 100 nM): + (“+” indicates a p value < 0.05)
- Significant reduction in target transcript abundance compared to LPS-stimulated BV2 lysates: IL-6 (BV2 microglia [2]; dose 100 nM): NS
- Significant reduction in target transcript abundance compared to LPS-stimulated BV2 lysates: NLRP3 (BV2 microglia [2]; dose 100 nM): ++ (“++” indicates a p value < 0.01)
- Significant reduction in target transcript abundance compared to LPS-stimulated BV2 lysates: iNOS (BV2 microglia [2]; dose 100 nM): ++ (“++” indicates a p value < 0.01)
- Significant reduction in target transcript abundance compared to LPS-stimulated BV2 lysates: IL-1β (BV2 microglia [2]; dose 1 μM): ++ (“++” indicates a p value < 0.01)
- Significant reduction in target transcript abundance compared to LPS-stimulated BV2 lysates: IL-6 (BV2 microglia [2]; dose 1 μM): + (“+” indicates a p value < 0.05)
- Significant reduction in target transcript abundance compared to LPS-stimulated BV2 lysates: NLRP3 (BV2 microglia [2]; dose 1 μM): + (“+” indicates a p value < 0.05)
- Significant reduction in target transcript abundance compared to LPS-stimulated BV2 lysates: iNOS (BV2 microglia [2]; dose 1 μM): ++ (“++” indicates a p value < 0.01)
